According to patent US7064144B2, “Imidazole derivatives as adenosine deaminase inhibitors” (Astellas Pharma Inc., priority 2001, dated 2006):

Tested on: not given
Test: not given
Details: not given

| SMILES | melting point |
| --- | --- |
| C[C@H](O)[C@H](CSc1cccc2ccccc12)n1cnc(C(N)=O)c1.Cl | > 168 °C (dec.) |
| C[C@H](O)[C@@H](CCOc1ccc(-c2ccccc2)cc1)n1cnc(C(N)=O)c1 [Example 28, 1-[(2S,3R)-5-(1,1′-biphenyl-4-yloxy)-2-hydroxy-3-pentyl]imidazole-4-carboxamide] | 191 to 193 °C |
| C[C@H](O)[C@@H](CCOc1ccc2c(ccn2C)c1)n1cnc(C(N)=O)c1 [Example 75, 1-[(2S,3R)-2-hydroxy-5-(1-methyl-1H-indol-5-yloxy)-3-pentyl]imidazole-4-carboxamide] | 211 to 213.5 °C |
| C[C@H](O)[C@@H](COc1ccc(Cl)c(Cl)c1)n1cnc(C(N)=O)c1 [Example 81, 1-{(1R,2S)-1-[(3,4-dichlorophenoxy)methyl]-2-hydroxypropyl}-1H-imidazole-4-carboxamide] | 115 to 121 °C |
| C[C@H](O)[C@@H](CCOc1cccc(-c2ccc(Cl)nc2)c1)n1cnc(C(N)=O)c1 [Example 87, 1-{(2S,3R)-5-[3-(6-chloro-3-pyridyl)phenoxy]-2-hydroxy-3-pentyl}imidazole-4-carboxamide] | 166 to 168 °C |
| C[C@H](O)[C@@H](CCOc1ccc2ccc(Cl)cc2c1)n1cnc(C(N)=O)c1 [Example 97, 1-[(2S,3R)-5-(7-chloro-2-naphthyloxy)-2-hydroxy-3-pentyl]imidazole-4-carboxamide] | 139 to 141 °C |
| C[C@H](O)[C@H](CSc1ccc2ccccc2c1)n1cnc(C(N)=O)c1 [Example 102, 1-{(1R,2S)-2-hydroxy-1-[(2-naphthylthio)methyl]propyl}-1H-imidazole-4-carboxamide] | > 108 °C (dec.) |
| C[C@H](O)[C@H](CSc1cccc(Cl)c1Cl)n1cnc(C(N)=O)c1 [Example 104, 1-{(1R,2S)-1-{[(2,3-dichlorophenyl)thio]methyl}-2-hydroxypropyl}-1H-imidazole-4-carboxamide] | > 120 °C (dec.) |

Biological target: T1, Human ADA (Homo sapiens, UniProt P00813)
T1 construct: made in house
T1 sequence (P00813 1-363): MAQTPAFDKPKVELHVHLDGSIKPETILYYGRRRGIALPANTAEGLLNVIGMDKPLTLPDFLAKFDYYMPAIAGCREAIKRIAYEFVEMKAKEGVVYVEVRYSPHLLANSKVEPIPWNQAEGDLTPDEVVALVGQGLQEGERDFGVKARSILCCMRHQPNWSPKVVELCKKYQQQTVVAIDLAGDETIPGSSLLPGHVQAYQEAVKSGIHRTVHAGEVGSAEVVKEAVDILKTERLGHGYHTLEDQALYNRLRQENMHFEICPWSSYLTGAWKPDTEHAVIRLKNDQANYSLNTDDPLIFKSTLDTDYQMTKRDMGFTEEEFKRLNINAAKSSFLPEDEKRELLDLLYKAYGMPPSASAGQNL
Test: Adenosine Deaminase (ADA) Enzyme Assay
Assay type: biochemical
Details: 50% inhibition of Vmax vs vehicle; 0.16 μg/ml ADA, 0.1 mM adenosine, 10 mM phosphate buffer saline pH 7.4, room temperature, A265
From the text: Adenosine Deaminase (ADA) Enzyme Assay
• 1-[(2S,3R)-5-(1,1′-biphenyl-3-yloxy)-2-hydroxy-3-pentyl]imidazole-4-carboxamide (Example 20) • 1-{(2S,3R)-2-hydroxy-5-[3-(2-thienyl)phenoxy]-3-pentyl}imidazole-4-carboxamide (Example 32) • 1-[(2S,3R)-2-hydroxy-5-(2-quinolyloxy)-3-pentyl]imidazole-4-carboxamide (Example 49) • 1-[(2S,3R)-2-hydroxy-5-(2-naphthylthio)-3-pentyl]imidazole-4-carboxamide (Example 76) • 1-[(2S,3R)-2-hydroxy-5-(2-quinolylthio)-3-pentyl]imidazole-4-carboxamide (Example 78) Test Method:
The reaction velocity (V) is measured by a change in absorbance at 265 nm (A265) resulting from the deamination of adenosine. Human ADA was expressed and purified from ADA-deficient bacterial strain. Reaction mixtures of a total volume of 200 μl contained 0.16 μg/ml of ADA and 0.1 mM of adenosine and test compound in 10 mM phosphate buffer saline (pH 7.4). The reaction was started by addition of ADA to a mixture of adenosine and test compound. The reaction was followed at room temperature by recording decrease in A265 for 3 minutes in SPECTRAmax 250 (Molecular Devices, USA) to automatically calculate Vmax. Inhibitory potency of test compound was expressed as IC50 value, the drug concentration required to produce 50% inhibition of Vmax in comparison to vehicle treatment.

| SMILES | IC50 |
| --- | --- |
| C[C@H](O)[C@@H](CCOc1cccc(-c2ccccc2)c1)n1cnc(C(N)=O)c1 [Example 20, 1-[(2S,3R)-5-(1,1′-biphenyl-3-yloxy)-2-hydroxy-3-pentyl]imidazole-4-carboxamide] | < 20 nM |
| C[C@H](O)[C@@H](CCOc1cccc(-c2cccs2)c1)n1cnc(C(N)=O)c1 [Example 32, 1-{(2S,3R)-2-hydroxy-5-[3-(2-thienyl)phenoxy]-3-pentyl}imidazole-4-carboxamide] | < 20 nM |
| C[C@H](O)[C@@H](CCOc1ccc2ccccc2n1)n1cnc(C(N)=O)c1 [Example 49, 1-[(2S,3R)-2-hydroxy-5-(2-quinolyloxy)-3-pentyl]imidazole-4-carboxamide] | < 20 nM |
| C[C@H](O)[C@@H](CCSc1ccc2ccccc2c1)n1cnc(C(N)=O)c1 [Example 76, 1-[(2S,3R)-2-hydroxy-5-(2-naphthylthio)-3-pentyl]imidazole-4-carboxamide] | < 20 nM |
| C[C@H](O)[C@@H](CCSc1ccc2ccccc2n1)n1cnc(C(N)=O)c1 [Example 78, 1-[(2S,3R)-2-hydroxy-5-(2-quinolylthio)-3-pentyl]imidazole-4-carboxamide] | < 20 nM |
